Measured values published in PMC7320009 (Scientific Reports, 2020).

Tests used:
BPSS2242 [1] = target: T1, BPSS2242 (Burkholderia pseudomallei, UniProt Q63I27)
BPSS2242 [2] = target: T1, BPSS2242; remark: listed apart in the source

T1 sequence (Q63I27 1-271 limits assumed): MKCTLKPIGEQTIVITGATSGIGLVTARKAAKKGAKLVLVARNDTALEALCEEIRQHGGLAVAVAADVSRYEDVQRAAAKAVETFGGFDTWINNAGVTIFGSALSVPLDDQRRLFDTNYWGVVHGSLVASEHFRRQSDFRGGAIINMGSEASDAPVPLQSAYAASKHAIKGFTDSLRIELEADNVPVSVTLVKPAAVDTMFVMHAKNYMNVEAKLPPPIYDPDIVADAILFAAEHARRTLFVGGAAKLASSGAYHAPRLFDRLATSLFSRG

Row | Compound | Tm (BPSS2242 [1]) [°C] | NADPH oxidation at 340 nm (BPSS2242 [2])
1 | NC(=O)C1=CN([C@@H]2O[C@H](COP(=O)(O)OP(=O)(O)OC[C@H]3O[C@@H](n4cnc5c(N)ncnc54)[C@H](OP(=O)(O)O)[C@@H]3O)[C@@H](O)[C@H]2O)C=CC1 [NADPH] | 55.23 | –
2 | CC(=O)C=O [methylglyoxal] | – | BPSS2242 exhibited reductase activity toward diacetyl and methylglyoxal when NADPH was used
